Paper PMC7515950, “Physiologically based pharmacokinetic modeling to assess metabolic drug–drug interaction risks and inform the drug label for fedratinib” (Cancer Chemotherapy and Pharmacology, 2020)
“And” between values parts separate entries of the source, which are not always exact repeats. Equal entries are not always repeated. Where two headings read alike, the source gives them in different places.

Tests used:
[1] = Human 14C mass balance and metabolic profiling (BEX12257, MEH0082); type: in vivo; settings: for fa (fraction of absorbed dose): estimated from mass balance and metabolic profiling, BEX12257 and MEH0082; for CL renal: estimated from BEX12257, MEH0082 with CL/F of 33.3 L/h, read-out: CLR (renal clearance) (converted)
Method: The first-order absorption ka value was estimated to be ~0.22 h^-1 based on compartmental modeling of mean PK data obtained from healthy subjects given single doses of 500 mg fedratinib (see Table 1 in Supplemental Material SM 2). The fa value was estimated based on data obtained from the mass balance and metabolic profiling studies conducted in healthy subjects. By combining the estimated excretion percentages of the parent compound in urine, feces, and bile, the unabsorbed dose was estimated to be ~35% and thus fraction of absorption (fa) was estimated to be ~0.65 (see Figure 2 and “Excretion Parameters” subsection).
Following the normalization, excretion percentages of fedratinib were estimated to be ~5% and ~37% of the administered dose in urine and feces, respectively.

[2] = Compartmental PK modeling of single-dose 500 mg data in healthy volunteers; type: in vivo, human
Excerpt: The PBPK model of fedratinib was constructed in Simcyp® by integrating available in vitro and in vivo information, including physiochemical parameters, permeability and blood binding parameters, enzyme and transporter inhibition parameters, and human PK parameters estimated from clinical PK data. A stepwise “middle-out” approach was applied to estimate the human PBPK parameters for fedratinib in Simcyp®. First, the temporal profiles of mean plasma concentration of fedratinib were collected from the clinical studies in healthy volunteers (HVs) administered single doses of 500 mg fedratinib. Then the preliminary human oral PK parameters were estimated as described in Supplemental Materials SM2 and SM3.
The minimal PBPK model within Simcyp® was used to describe the distribution of fedratinib. The Vss, Vsac, and Q values were estimated using the compartmental PK modeling approach (see Table 3 in Supplemental Material SM 3) and further refined within Simcyp® based on the model-predicted bioavailability (F) using the following equations: […]
The estimated values of Vss, Vsac, and Q were directly supplied to the Distribution module within Simcyp® without further modifications. Note that since the intravenous (IV) PK data are not available in humans for fedratinib, the distribution parameters include Vss estimated from the oral human PK data may not be accurate and will be subject to further verification if the human IV PK data of fedratinib or other relevant clinical information are available in the future.
The temporal profiles of mean plasma concentration of fedratinib were collected from the clinical studies (TDU12620, BDR12462, FED12258, and ALI13451) conducted in healthy volunteers (HVs) administered with single doses of 500 mg fedratinib. The compartmental PK modeling was conducted in Phoenix®/NLME (V7, Certara, Princeton, NJ). A two-compartment PK structural model with the additive error model was identified to successfully describe the PK data. The “naïve pooled” algorithm provided in Phoenix was used for parameter estimation.

[3] = cited from earlier work
[4] = set-up: method as in PMID 32248324; settings: healthy subjects, observation, cited from earlier work; for AUC GM Ratio (90% CI): 300 mg single dose with vs without ketoconazole 200 mg BID, AUCinf
[5] = human 14C-mass balance, over 0-192/240h
[6] = normalized by total recovered radioactivity
[7] = healthy subjects, single doses of 500 mg, two-compartment model
[8] = 300 mg QD, MF patients, Day 1, observation, GM
[9] = 300 mg QD, MF patients, Day 1, observation, Mean (SD)
[10] = 300 mg QD, MF patients, steady state, observation, GM
[11] = 300 mg QD, MF patients, steady state, observation, Mean (SD)
[12] = 400 mg QD, MF patients, Day 1, observation, GM
[13] = 400 mg QD, MF patients, Day 1, observation, Mean (SD)
[14] = 400 mg QD, MF patients, steady state, observation, GM
[15] = 400 mg QD, MF patients, steady state, observation, Mean (SD)
[16] = 500 mg QD, MF patients, Day 1, observation, GM
[17] = 500 mg QD, MF patients, Day 1, observation, Mean (SD)
[18] = 500 mg QD, MF patients, steady state, observation, GM
[19] = 500 mg QD, MF patients, steady state, observation, Mean (SD)
[20] = clinical observation in MF patients
[21] = 300 mg single dose + ketoconazole 200 mg BID, GM
[22] = 300 mg single dose + ketoconazole 200 mg BID, Mean (SD)
[23] = 300 mg single dose alone, Mean (SD)

- unabsorbed dose ([1]; estimated from excretion of parent in urine, feces and bile): ~ 35%
- fa (fraction of absorbed dose) [1]: 0.65
- fa (fraction of absorbed dose) ([1]; listed as fedratinib): 0.650
- parent compound in feces, percent of administered dose [1, 5]: 23.3%
- parent compound in urine, percent of administered dose [1, 5]: 2.9%
- blood plasma ratio ([1]; human, blood and plasma, oral, Study BEX12257, read-out: B/P (blood/plasma concentration ratio)): 0.7
- CL renal ([1]; human, in vivo, oral): ~27.8 mL/min
- CL renal ([1]; human, urine, oral): 27.8 mL/min
- excretion percentage of fedratinib in feces, normalized [1, 6]: ~ 37%
- excretion percentage of fedratinib in urine, normalized [1, 6]: ~ 5%
- total percent activity of administered dose ([1]; over 0-192/240h): 62.7%
- ka ([2]; Simcyp input): 0.220 h⁻¹
- Q (inter-compartment clearance) ([2]; from compartmental modeling, assuming F ~0.36): ~ 11 L/h
- ka (first-order absorption constant) ([2]; healthy subjects, single doses of 500 mg): 0.22 h⁻¹ and 0.221 h⁻¹
- CL2/F [2, 7]: 30.8 L/h
- CL/F [2, 7]: 27.2 L/h
- V2/F [2, 7]: 797 L
- V/F [2, 7]: 107 L
- ka (first-order absorption constant) ([2]; healthy subjects, single doses of 500 mg, listed as fedratinib): ~ 0.22 h^-1
Compound: Cc1cnc(Nc2ccc(OCCN3CCCC3)cc2)nc1Nc1cccc(S(=O)(=O)NC(C)(C)C)c1 [Fedratinib]
- Vsac ([2]; from compartmental modeling, assuming F ~0.36 and body weight ~81 kg): 3.5 L/kg
- Vsac ([2]; from compartmental modeling, assuming F ~0.36 and body weight ~81 kg, listed as fedratinib): 3.5 L/kg
- Vd ([2]; human, plasma, oral, 500 mg, from compartmental modeling, assuming F ~0.36 and body weight ~81 kg, read-out: Vss): ~4.1 L/kg
- AUC (AUCτ) [3, 8]: 7020 ng·h/mL
- Cmax [3, 8]: 1070 ng/mL
- AUC (AUCτ) [3, 9]: 9460 (7770) ng/mL·h
- Cmax [3, 9]: 1380 (1060) ng/mL
- AUC (AUCτ) [3, 10]: 22400 ng·h/mL
- Cmax [3, 10]: 1530 ng/mL
- AUC (AUCτ) [3, 11]: 25300 (14100) ng/mL·h
- Cmax [3, 11]: 1800 (1120) ng/mL
- AUC (AUCτ) [3, 12]: 9130 ng·h/mL
- Cmax [3, 12]: 1290 ng/mL
- AUC (AUCτ) [3, 13]: 9610 (3450) ng/mL·h
- Cmax [3, 13]: 1430 (754) ng/mL
- AUC (AUCτ) [3, 14]: 26900 ng·h/mL
- Cmax [3, 14]: 1800 ng/mL
- AUC (AUCτ) [3, 15]: 29100 (13500) ng/mL·h
- Cmax [3, 15]: 2020 (1250) ng/mL
- AUC (AUCτ) [3, 16]: 9980 ng·h/mL
- Cmax [3, 16]: 1270 ng/mL
- AUC (AUCτ) [3, 17]: 11300 (6060) ng/mL·h
- Cmax [3, 17]: 1420 (710) ng/mL
- AUC (AUCτ) [3, 18]: 38700 ng·h/mL
- Cmax [3, 18]: 2540 ng/mL
- AUC (AUCτ) [3, 19]: 44500 (24900) ng/mL·h
- Cmax [3, 19]: 2830 (1370) ng/mL
- accumulation ratio, AUC ([3]; Study ARD11936 500 mg QD, MF patients, observed): 3.9
- accumulation ratio, AUC [3, 20]: 2.9–3.2
- accumulation ratio, Cmax [3, 20]: 1.4–2.0
- AUC (AUCinf) [4, 21]: 25000 ng·h/mL
- Cmax [4, 21]: 741 ng/mL
- AUC (AUCinf) [4, 22]: 26,800 (10,600) ng/mL·h
- Cmax [4, 22]: 812 (374) ng/mL
- AUC (AUCinf) ([4]; 300 mg single dose alone, GM): 6460 ng·h/mL
- Cmax ([4]; 300 mg single dose alone, GM): 379 ng/mL
- AUC (AUCinf) [4, 23]: 7440 (4060) ng/mL·h
- Cmax [4, 23]: 444 (262) ng/mL
- AUC GM Ratio (90% CI) [4]: 3.06 (2.46–3.80)
- AUC GM Ratio (90% CI) ([4]; listed as fedratinib): 3.06
